Test results: patent US9944606B2, “Cannabinoid receptor modulators” (Arena Pharmaceuticals, Inc., priority 2009, dated 2018)
pKi: −log10 of the molar value.

Legend:
hCB1 = hCB1 (Homo sapiens (Human), UniProt P21554); test: Radioligand binding assay, hCB1; conditions: NR = No Response
[1] = tested on: streptozotocin-induced painful diabetic peripheral neuropathy; test: Streptozotocin-induced painful diabetic peripheral neuropathy (PDPN) model; type: in vivo, Sprague-Dawley rats; conditions: diabetic allodynic rats, 10 mg/kg orally in 0.5% methylcellulose, 1, 4 and 6 hours post-dosing, FIG. 17 and FIG. 18
Description: Male Sprague-Dawley rats were injected intraperitoneally with 50 mg/kg of streptozotocin (STZ) in sodium citrate buffer. 10% sucrose water was provided ad libitum for the first 48 hours post-STZ followed by regular drinking water. Rats were monitored once weekly for blood glucose levels and body weights. Development of tactile allodynia over time was analyzed using Von Frey filaments and a 50% withdrawal threshold was determined using Dixon's up-down procedure. […] Tactile allodynia was evaluated at 1, 4 and 6 hours post-dosing.

human CB2 receptor = human CB2 receptor (Homo sapiens (Human), UniProt P34972); test: Radioligand binding assay ([3H]CP55,940 / [3H]WIN55,212-2), hCB2; conditions: HEK293 membranes expressing human CB2, NR = No Response
Description: Preparation of Membranes: HEK293 cells stably expressing human CB2 receptor were collected, washed in ice cold PBS, and centrifuged at 48,000×g for 20 min at 4° C. The cell pellet was then collected, resuspended in wash buffer (20 mM HEPES, pH 7.4 and 1 mM EDTA), homogenized on ice using a Brinkman Polytron, and centrifuged at 48,000×g for 20 min at 4° C. The resultant pellet was resuspended in ice cold 20 mM HEPES, pH 7.4, homogenized again on ice, recentrifuged for 20 min at 4° C., and membrane pellets were then stored at −80° C. until needed.
[…] and [^3H]WIN55, 212-2 Radioligand Binding Assays: Radioligand binding assays for human CB2 receptors were performed using two different agonist radioligands, [^3H]CP55,940 and [^3H]WIN55, 212-2 and similar assay conditions. For both assays, nonspecific binding was determined in the presence of 10 μM unlabeled compound. […] Then, 25 μL of BetaScint scintillation cocktail was added to each well, and plates were read in a Packard TopCount scintillation counter.

[2] = tested on: paclitaxel-induced allodynia; test: Paclitaxel-induced allodynia in Sprague Dawley rats; type: in vivo; conditions: 10 mg/kg orally, FIG. 3
Description: Animals: Male Sprague Dawley rats [200-250 g] (Harlan Laboratories Inc., Livermore, Calif.) were housed three per cage and maintained in a humidity-controlled (40-60%) and temperature-controlled (68-72° F.) facility on a 12 h:12 h light/dark cycle (lights on at 6:30 am) with free access to food (Harlan Teklad, Orange, Calif., Rodent Diet 8604) and water. Rats were allowed one week of habituation to the animal facility before starting treatment.
Induction of Allodynia: Rats were treated intraperitoneally, with 2 mg/kg of paclitaxel (Sigma Aldrich, Saint Louis, Mo.) in 10% Cremophor vehicle (500 μL) on days 0, 2, 4, and 6.
Clinical scoring: Tactile allodynia was tested using von Frey filaments. Briefly, the von Frey assay was performed using the standardized up down method with von Frey filaments, that determine the tactile sensitivity of the paw. By applying the increasingly or decreasingly thicker filaments to the paw in a logarithmic scale of actual force, a linear scale of perceived intensity is determined
Drug treatment: Eight days after the start of paclitaxel dosing, a baseline measurement (von Frey assay) was performed prior to dosing of compounds. […] As a positive control, rats were dosed intraperitoneally with 100 mg/kg gabapentin in water. The dosing volume for oral and peritoneal treatment was 500 μL. […]

[3] = tested on: FCA-induced hyperalgesia model of inflammatory pain; test: FCA-induced hyperalgesia in rats; type: in vivo, Sprague Dawley rats; conditions: FCA rats, 0.1, 1, 3, 10 and 30 mg/kg orally, 1 h post dosing, Analgesy-Meter, FIG. 1
Description: Animal Info: Male Sprague Dawley rats from Harlan (200-225 g when received) were used. Upon arrival, rats were housed 4 per cage in shoe-box polycarbonate cages with wire tops, wood chip bedding and suspended food and water bottles Animals were acclimated for 5-7 days prior to being injected with Freund's complete adjuvant (FCA) (Sigma; catalog #5881).
Experimental procedure: 2 days (48 h) before testing compounds, baseline readings of all rats were taken right before FCA injection. Rats were then injected with 50 μL FCA containing 1 mg/mL Mtb (Mycobacterium tuberculosis) in right hind footpad under inhalation anesthesia (isoflurane). 48 hours after FCA injection, readings were taken as pre-dosing baseline and then rats were dosed orally with 0.5 mL of vehicle or compound (0.5 mL per 250 g rat). Readings were taken again at 1 h post dosing. All readings were taken with an Analgesy-Meter (Ugo Basile) which measures mechanical hyperalgesia via paw pressure.
Clinical scoring: FCA-induced hyperalgesia was tested with an Analgesy-Meter. Briefly, the Analgesy Meter applied an increasing pressure to the right hind paw. The paw withdrawal threshold was the pressure leading to withdrawal.
Meanwhile a group of rats were dosed orally with 50 mg/kg of Diclofenac as a positive control. Readings were taken again at 1 h post dosing. Dosing volume was 500 μL per 250 g rat.

[4] = tested on: MIA model of osteoarthritis; test: MIA model of osteoarthritis pain (von Frey, weight distribution, grip strength); type: in vivo, Sprague Dawley rats; conditions: MIA rats, 3, 10 and 30 mg/kg orally, one hour after dosing, FIG. 2
Text: Injection of monosodium iodoacetate (MIA) into a joint (Kalbhen, 1987) inhibits the activity of glyceraldehyde-3-phosphate dehydrogenase in chondrocytes, resulting in disruption of glycolysis and eventually in cell death. The progressive loss of chondrocytes results in histological and morphological changes of the articular cartilage, closely resembling those seen in osteoarthritis patients.
The osteoarthritis was induced in 200 g male Sprague Dawley rats. […]
Typically during disease progression, there was an inflammation period of 0-7 days post-intra-articular injection followed by progressive degeneration of the cartilage and subchondral bone from days 14-55. […] Tactile allodynia was measured via von Frey assay, hind limb paw weight distribution was monitored using an incapacitence tester (Columbus Instruments, Columbus, Ohio, USA) and hind limb grip strength was measured using a grip strength meter (Columbus Instruments, Columbus, Ohio, USA). […] Hind paw weight distribution was determined by placing rats in a chamber so that each hind paw rests on a separate force plate of the incapacitence tester. The force exerted by each hind limb (measured in grams) is averaged over a 3 second period. Three measurements were taken for each rat, and the change in hind paw weight distribution calculated. […]

CNC(=O)[C@@H](NC(=O)c1nn(-c2c[n+]([O-])ccn2)c2c1C[C@@H]1C[C@H]21)C(C)(C)C [Compound 701]
pKi (hCB1): 6.98

CC(C)(NC(=O)c1nn(-c2c[n+]([O-])ccn2)c2c1C[C@@H]1C[C@H]21)C(F)(F)F [Compound 919, (1aS,5aS)-2-(4-Oxy-pyrazin-2-yl)-1a,2,5,5a-tetrahydro-1H-2,3-diaza-cyclopropa[a]pentalene-4-carboxylic acid (2,2,2-trifluoro-1,1-dimethyl-ethyl)-amide]
analgesic efficacy (tactile allodynia, 50% withdrawal threshold) [1]: robust and sustained analgesic efficacy over 6 hours

CONC(=O)[C@@H](NC(=O)c1nn(-c2c[n+]([O-])ccn2)c2c1C[C@H]1C[C@@H]21)C(C)(C)C [Compound 755]
pKi (hCB1): 5.92
pKi (human CB2 receptor): 8.42

CC(C)(C)[C@@H](CO)NC(=O)c1nn(-c2c[n+]([O-])ccn2)c2c1C[C@@H]1C[C@H]21 [Compound 699, (1aS,5aS)-2-(4-Oxy-pyrazin-2-yl)-1a,2,5,5a-tetrahydro-1H-2,3-diaza-cyclopropa[a]pentalene-4-carboxylic Acid ((S)-1-Hydroxymethyl-2,2-dimethyl-propyl)-amide]
analgesic efficacy (tactile allodynia, 50% withdrawal threshold) [1]: robust and sustained analgesic efficacy over 6 hours

CC(C)(CO)NC(=O)c1nn(-c2ccc(F)cc2F)c2c1C[C@H]1C[C@@H]21 [Compound 493, (1aR,5aR)-2-(2,4-Difluoro-phenyl)-1a,2,5,5a-tetrahydro-1H-2,3-diaza-cyclopropa[a]pentalene-4-carboxylic Acid (2-Hydroxy-1,1-dimethyl-ethyl)-amide]
time of maximum efficacy post-dosing ([2]; time course): 1 h
paw withdrawal threshold (PWT) in comparison with vehicle and gabapentin, therapeutic efficacy ([2]; von Frey 30, 60 and 180 minutes after dosing): increase in paw withdrawal threshold (PWT)
paw withdrawal threshold (PWT) in comparison with vehicle, therapeutic efficacy [3]: increase in paw withdrawal threshold (PWT)
paw withdrawal threshold (PWT) in comparison with vehicle, therapeutic efficacy [4]: Increase in paw withdrawal threshold (PWT)
